Reference: patent US20170204126A1, “MOLYBDENUM- AND TUNGSTEN-CONTAINING PRECURSORS FOR THIN FILM DEPOSITION” (L'Air Liquide, Société Anonyme pour l'Etude et …, priority 2014, published 2017)
Blank lines part the entries; values can stand above or below the compound they belong to.

Assays:
[1] = Solubility of the compound in common solvents; settings: for Solubility in alkanes and toluene: at room temperature
Method: Measurement Conditions: • Sample weight: 26.00 mg • Atmosphere: Nitrogen, 1 atmospheric pressure • Heating rate: 10° C.·min^−1 • Solubility of the compound in common solvents
Measurement Conditions: • Sample weight: 24.57 mg • Atmosphere: Nitrogen, 1 atmospheric pressure • Heating rate: 10° C.·min^−1 • Solubility of the compound in common solvents
Measurement Conditions: • Sample weight: 21.19 mg • Atmosphere: Nitrogen, 1 atmospheric pressure • Heating rate: 10° C.·min^−1 • Solubility of the compound in common solvents
Measurement Conditions: • Sample weight: 23.09 mg • Atmosphere: Nitrogen, 1 atmospheric pressure • Heating rate: 10° C.·min^−1 • Solubility of the compound in common solvents
Measurement Conditions: • Sample weight: 19.79 mg • Atmosphere: Nitrogen, 1 atmospheric pressure • Heating rate: 10° C.·min^−1 • Solubility of the compound in common solvents
Measurement Conditions: • Sample weight: 27.43 mg • Atmosphere: Nitrogen, 1 atmospheric pressure • Heating rate: 10° C.·min^−1 • Solubility of the compound in common solvents

[2] = Thermal Stability Test (storage at 50° C.); type: physicochemical
Method: The product was stored at 50° C. for 14 and 44 days. The W(OsBu)6 content after 14 days was 1.1 atomic %. The W(OsBu)6 content after 44 days was 1.2 atomic %.

Compound: CC(C)C(C)[O][W](=[O])([O]C(C)C(C)C)([O]C(C)C(C)C)[O]C(C)C(C)C (stereo not shown) [W(═O)(OCH(CH3)(CH(CH3)2))4]
Vapor pressure (Vapor pressure; at 147° C.): 1 Torr | Solubility in common organic solvents ([1]; hexane, acetone, chloroform, and/or toluene): miscible

Compound: CCCC[O][W](=[O])([O]CCCC)([O]CCCC)[O]CCCC [W(═O)(OnBu)4]
Solubility in alkanes and toluene [1]: very low solubility

Compound: CCC[O][W](=[O])([O]CCC)([O]CCC)[O]CCC [W(═O)(OnPr)4]
Solubility in alkanes and toluene [1]: very low solubility

Compound: tungsten oxo sec-butoxide [W(═O)(OsBu)4]
W(OsBu)6 content after storage ([2]; stored at 50° C. for 14 days): 1.1 atomic % | W(OsBu)6 content after storage ([2]; stored at 50° C. for 44 days): 1.2 atomic %

Results, then the compound that gave them:

Solubility in alkanes and in toluene ([1]; toluene up to 80° C.): very low solubility
Compound: CC(C)C[O][W](=[O])([O]CC(C)C)([O]CC(C)C)[O]CC(C)C [W(═O)(OiBu)4, W(═O)(OCH2CH(CH3)2)4]

Vapor pressure (Vapor pressure; at 103° C.): 1 Torr | Solubility in alkanes ([1]; alkanes): very low solubility | Solubility in toluene ([1]; toluene at 60° C.): soluble
Compound: CC(C)[O][W](=[O])([O]C(C)C)([O]C(C)C)[O]C(C)C [W(═O)(OiPr)4, W(═O)(OCH(CH3)2)4]
